From patent US11267826B2, “Penicillin-binding protein inhibitors” (priority 2017, dated 2022)

Columns and labels:
[1] = test system: hyper-permeable E. coli 901C; experiment: Broth microdilution MIC assay, hyper-permeable E. coli; format: cell-based; details: Escherichia coli, read-out: E. coli 901C MIC
Procedure, shortened: (§1)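 MIC taken by eye as the lowest compound concentration showing no growth after 16-20 hours at 37° C. Cultures grown 3-5 h in cation-supplemented Mueller-Hinton broth were added to 2-fold compound dilution series at a starting density of 5×10^5 CFU/mL, following CLSI methods.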

[2] = molecular target: T1, E. coli K12 PBP1b (Escherichia coli, UniProt P02919); experiment: Competition binding assay using Bodipy-FL boronic acid probe (Example 125); details: Bodipy-FL boronic acid probe (Example 125) 30 μM, 10 minutes pre-incubation, 10 minutes reaction
T1 construct: endogenous in cells; host or cells: Escherichia coli K12, membrane protein fraction
T1 sequence (P02919 whole entry): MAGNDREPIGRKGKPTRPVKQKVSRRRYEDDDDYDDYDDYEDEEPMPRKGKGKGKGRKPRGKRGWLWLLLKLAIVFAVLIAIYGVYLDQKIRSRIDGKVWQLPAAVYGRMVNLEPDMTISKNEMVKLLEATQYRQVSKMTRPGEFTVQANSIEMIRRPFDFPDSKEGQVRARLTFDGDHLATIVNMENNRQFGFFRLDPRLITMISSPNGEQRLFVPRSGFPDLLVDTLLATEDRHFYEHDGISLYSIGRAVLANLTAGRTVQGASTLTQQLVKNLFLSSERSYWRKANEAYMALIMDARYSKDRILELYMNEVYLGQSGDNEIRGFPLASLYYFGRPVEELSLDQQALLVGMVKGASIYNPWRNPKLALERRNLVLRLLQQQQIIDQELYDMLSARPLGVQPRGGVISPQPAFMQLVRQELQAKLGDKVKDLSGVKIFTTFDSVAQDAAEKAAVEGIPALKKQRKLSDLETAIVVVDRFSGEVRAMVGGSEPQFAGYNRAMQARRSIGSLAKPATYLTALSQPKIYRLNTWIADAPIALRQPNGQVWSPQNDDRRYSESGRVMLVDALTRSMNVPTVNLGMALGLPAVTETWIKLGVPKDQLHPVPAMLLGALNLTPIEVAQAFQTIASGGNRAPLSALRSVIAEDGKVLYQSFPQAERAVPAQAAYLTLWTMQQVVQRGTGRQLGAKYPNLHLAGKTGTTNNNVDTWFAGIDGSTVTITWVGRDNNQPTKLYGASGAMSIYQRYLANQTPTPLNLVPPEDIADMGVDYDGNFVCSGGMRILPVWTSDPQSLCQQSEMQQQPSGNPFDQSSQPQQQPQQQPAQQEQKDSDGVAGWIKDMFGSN
Method: Penicillin binding proteins were isolated from Escherichia coli K12 by growth of Escherichia coli K12 from a single colony in 4 L of Luria-Bertani (LB) broth at 35° C. and 250 rpm to an OD600 nm of 0.5. The cells were harvested by centrifugation at 7,000×g for 10 min. at 4° C. Cells were resuspended and washed in 50 mM potassium phosphate pH 7.5. The cells were re-suspended in sonication buffer [50 mM Tris-HCl pH 7.5, 1 mM MgCl2, 1 mM beta-mercaptoethanol, and 5 μg/mL DNAse I] and sonicated by 4 passes of 30 seconds at 45 W on ice. The sample was clarified by centrifugation at 3,000×g to remove cell debris and unbroken cells and supernatant containing the membrane proteins was retained. The membrane proteins including the PBPs were further purified from soluble constituents by an ultracentrifugation step at 100,000×g for 30 min. at 4° C. The membrane proteins are washed twice with 10 mM sodium phosphate pH 7, resuspended in a volume of 5 mL, quantitated by BCA assay, adjusted to […] and frozen at −80° C. until use.
The adapted Bocillin FL competition binding method described herein incorporates a 15 min. pre-incubation of test compound with isolated PBPs to attempt to balance the difference in mechanism of inhibition between beta-lactams (largely irreversible covalent bond to active site Serine) and the boron-containing PBP inhibitor test compounds (reversible covalent bond to active site Serine). Briefly, 50 μL reactions consisted of 100 μg's of total membrane protein extracts containing PBPs incubated with a dilution series of test compound ranging from 0.005 μg/mL to 2,480 μg/mL in 10 mM sodium phosphate pH7 containing 350 mM NaCl. Thirty minute reactions at 35° C. were initiated by addition of […] Bocillin FL, quenched by addition of SDS-PAGE loading buffer containing sodium dodecyl sulfate (SDS) and heated for 15 minutes at 95° C. to denature proteins in preparation for SDS-polyacrylamide gel electrophoresis. The Bocillin FL labeled PBPs are then separated by SDS-PAGE in Novex NuPage 10% Bis-Tris pre-cast gels (Invitrogen). The SDS-PAGE gel, post-electrophoresis, is then washed in water to remove excess SDS for 10 minutes at room temperature and placed on the scanning bed of a GE Healthcare/Amersham Biosciences Storm 860 fluorescence scanner. The excitation wavelength is in the blue spectrum at 450 nm and the emission at 520 nm is captured by the instrument. Effective PBP inhibitors are detected by a reduction in Bocillin FL labeling of the particular PBP over the dose range of test compound in a dose-responsive manner. High molecular weight PBP 1a/1b are not resolved by these gels, thus we report HMW PBP binding results in μg/mL for PBPs 1a/1b combined as well as for PBP2 and PBP3.
To determine the ability of boronic acid-based test PBP inhibitors to bind Penicillin Binding Proteins (PBPs), a competition binding assay using a Bodipy-FL-labeled boronic acid PBP inhibitor (Example 125) was adapted from the classical method used to assess PBP potency of beta-lactams using Bocillin-FL (fluorescently-labeled penicillin V). The method is identical to that described in Example I for the Bocillin-FL competition binding assay with the following exceptions, the Bodipy-FL boronic acid probe (Example 125) is used at a final concentration of 30 μM, pre-incubation time of test compound with PBP enzymes is 10 minutes and reaction time is set for 10 minutes and reactions are prepared for SDS-PAGE analysis by simply adding SDS-containing loading buffer. Representative results are shown in Table 5, where A represents a potency of >1000 μg/mL, B represents a potency between 64 and 1000 μg/mL inclusive, and C represents a potency of <64 μg/mL. NT=Not Tested.

[3] = test system: S. aureus ATCC 29213; experiment: Broth microdilution MIC assay, S. aureus; format: cell-based; details: Staphylococcus aureus, ATCC29213; broth microdilution, 16-20 hours at 37° C.; read-out: S. aureus 29213 MIC
Procedure, shortened: as §1

[4] = molecular target: T2, E. coli PBP3 (Escherichia coli, UniProt P0AD68); experiment: Bocillin FL competition binding assay, PBP3; set-up: species or system Escherichia coli K12; details: 15 min pre-incubation
T2 construct: 100 μg's of total membrane protein extracts containing PBPs; endogenous in cells; host or cells: Escherichia coli K12, membrane protein fraction
T2 sequence (P0AD68 1-577): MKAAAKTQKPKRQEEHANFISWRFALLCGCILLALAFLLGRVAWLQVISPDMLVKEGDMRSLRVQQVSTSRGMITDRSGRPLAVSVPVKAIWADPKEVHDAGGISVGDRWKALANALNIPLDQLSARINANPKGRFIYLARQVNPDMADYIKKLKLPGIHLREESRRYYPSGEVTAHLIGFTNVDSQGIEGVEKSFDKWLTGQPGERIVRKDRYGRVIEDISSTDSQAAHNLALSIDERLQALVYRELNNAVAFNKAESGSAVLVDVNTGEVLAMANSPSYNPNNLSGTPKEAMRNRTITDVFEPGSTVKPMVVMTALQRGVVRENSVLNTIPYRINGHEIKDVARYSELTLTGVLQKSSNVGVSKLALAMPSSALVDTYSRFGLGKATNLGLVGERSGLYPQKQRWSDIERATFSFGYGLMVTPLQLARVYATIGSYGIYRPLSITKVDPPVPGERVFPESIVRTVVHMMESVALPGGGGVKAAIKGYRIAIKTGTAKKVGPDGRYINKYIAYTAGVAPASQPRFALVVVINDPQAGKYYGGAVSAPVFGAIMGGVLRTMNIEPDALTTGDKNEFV
Procedure, shortened: (§2)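 E. coli K12 membrane extracts (100 µg protein) pre-incubated 15 min with compound (0.005–2,480 µg/mL) in pH 7 phosphate/350 mM NaCl, then labelled with Bocillin FL 30 min at 35°C; SDS-PAGE fluorescence (ex 450/em 520 nm), μg/mL reported. PBP1a/1b unresolved, reported combined.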

[5] = test system: E. coli K12 PBP1a/b; experiment: Bocillin FL competition binding assay, PBP1a/1b combined; set-up: species or system Escherichia coli K12; details: 15 min pre-incubation, PBP 1a/1b combined
Procedure, shortened: as §2

[6] = molecular target: T3, E. coli PBP2 (Escherichia coli, UniProt P0AD65); experiment: Bocillin FL competition binding assay, PBP2; set-up: species or system Escherichia coli K12; details: 15 min pre-incubation
T3 construct: 100 μg's of total membrane protein extracts containing PBPs; endogenous in cells; host or cells: Escherichia coli K12, membrane protein fraction
T3 sequence (P0AD65 whole entry): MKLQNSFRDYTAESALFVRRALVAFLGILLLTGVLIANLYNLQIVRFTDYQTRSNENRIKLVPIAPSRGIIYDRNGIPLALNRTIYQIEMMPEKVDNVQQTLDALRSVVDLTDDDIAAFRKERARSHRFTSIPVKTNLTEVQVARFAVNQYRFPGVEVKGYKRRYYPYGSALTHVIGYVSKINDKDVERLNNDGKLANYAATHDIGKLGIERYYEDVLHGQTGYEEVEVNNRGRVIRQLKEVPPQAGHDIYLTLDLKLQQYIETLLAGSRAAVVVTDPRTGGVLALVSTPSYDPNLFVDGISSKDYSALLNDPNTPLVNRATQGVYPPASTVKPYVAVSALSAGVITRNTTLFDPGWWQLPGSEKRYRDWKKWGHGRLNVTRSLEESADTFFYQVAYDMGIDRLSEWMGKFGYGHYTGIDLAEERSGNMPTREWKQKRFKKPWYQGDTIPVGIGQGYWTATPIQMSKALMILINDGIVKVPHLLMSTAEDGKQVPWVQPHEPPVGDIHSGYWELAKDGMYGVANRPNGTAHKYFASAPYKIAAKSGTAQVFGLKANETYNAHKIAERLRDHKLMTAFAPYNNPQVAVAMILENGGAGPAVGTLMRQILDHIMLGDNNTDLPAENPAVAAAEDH
Procedure, shortened: as §2

`CC(C)(O/N=C(\C(=O)N[C@H]1Cc2cc(O)cc(C(=O)O)c2OB1O)c1csc(N)n1)C(N)=O` [Example 82, (R,Z)-3-(2-(((1-amino-2-methyl-1-oxopropan-2-yl)oxy)imino)-2-(2-aminothiazol-4-yl)acetamido)-2,6-dihydroxy-3,4-dihydro-2H-benzo[e][1,2]oxaborinine-8-carboxylic Acid] was tested, and the MIC [1] was under 64 µg/mL, the “E. coli K12 PBP1b Potency” value [2] was “B (B represents a potency between 64 and 1000 μg/mL inclusive)” and the MIC [3] was over 128 µg/mL.

With `CC(C)NC(=N)c1ccc(OCCO/N=C(\C(=O)N[C@H]2Cc3cccc(C(=O)O)c3OB2O)c2csc(N)n2)cc1` [Example 49, (R,Z)-3-(2-(2-aminothiazol-4-yl)-2-((2-(4-(N-isopropylcarbamimidoyl)phenoxy)ethoxy)imino)acetamido)-2-hydroxy-3,4-dihydro-2H-benzo[e][1,2]oxaborinine-8-carboxylic Acid] the MIC [1] was under 64 µg/mL, the “E. coli K12 PBP1b Potency” value [2] was “A (A represents a potency of >1000 μg/mL)” and the “E. coli PBP3 Potency” value [4] was “B (B represents a potency between 64 and 1000 μg/mL inclusive)”. The MIC [3] was 64 to 128 µg/mL, the “E. coli K12 PBP1a/b Potency” value [5] was “B (B represents a potency between 64 and 1000 μg/mL inclusive)” and the “E. coli PBP2 Potency” value [6] was “B (B represents a potency between 64 and 1000 μg/mL inclusive)”.

For `Nc1nc(/C(=N/OCC2CCNCC2)C(=O)N[C@H]2Cc3cccc(C(=O)O)c3OB2O)cs1` [Example 52, (R,Z)-3-(2-(2-aminothiazol-4-yl)-2-((piperidin-4-ylmethoxy)imino)acetamido)-2-hydroxy-3,4-dihydro-2H-benzo[e][1,2]oxaborinine-8-carboxylic Acid], the MIC [1] was under 64 µg/mL, the “E. coli K12 PBP1b Potency” value [2] was “B (B represents a potency between 64 and 1000 μg/mL inclusive)” and the “E. coli PBP3 Potency” value [4] was “A (A represents a potency of >1000 μg/mL)”. For the same compound, the MIC [3] was over 128 µg/mL, the “E. coli K12 PBP1a/b Potency” value [5] was “A (A represents a potency of >1000 μg/mL)” and the “E. coli PBP2 Potency” value [6] was “A (A represents a potency of >1000 μg/mL)”.

For `Nc1nc(/C(=N/OCC(=O)NC2CCNCC2)C(=O)N[C@H]2Cc3cccc(C(=O)O)c3OB2O)cs1` [Example 59, (R,Z)-3-(2-(2-aminothiazol-4-yl)-2-((2-oxo-2-(piperidin-4-ylamino)ethoxy)imino)acetamido)-2-hydroxy-3,4-dihydro-2H-benzo[e][1,2]oxaborinine-8-carboxylic Acid], the MIC [1] was under 64 µg/mL, the “E. coli K12 PBP1b Potency” value [2] was “B (B represents a potency between 64 and 1000 μg/mL inclusive)” and the “E. coli PBP3 Potency” value [4] was “C (C represents a potency of <64 μg/mL)”. The MIC [3] was over 128 µg/mL, the “E. coli K12 PBP1a/b Potency” value [5] was “B (B represents a potency between 64 and 1000 μg/mL inclusive)” and the “E. coli PBP2 Potency” value [6] was “C (C represents a potency of <64 μg/mL)”.

With `Nc1nc(/C(=N/OCC(O)CO)C(=O)N[C@H]2Cc3cccc(C(=O)O)c3OB2O)cs1` (stereo partly drawn) [Example 76, (3R)-3-((Z)-2-(2-aminothiazol-4-yl)-2-((2,3-dihydroxypropoxy)imino)acetamido)-2-hydroxy-3,4-dihydro-2H-benzo[e][1,2]oxaborinine-8-carboxylic Acid] the MIC [1] was under 64 µg/mL, the “E. coli K12 PBP1b Potency” value [2] was “B (B represents a potency between 64 and 1000 μg/mL inclusive)” and the MIC [3] was 64 to 128 µg/mL.

For `N#CC1CCC(NC(=O)CO/N=C(\C(=O)N[C@H]2Cc3cccc(C(=O)O)c3OB2O)c2csc(N)n2)CC1` (stereo partly drawn) [Example 62, (R)-3-((Z)-2-(2-aminothiazol-4-yl)-2-((2-(((1r,4R)-4-cyanocyclohexyl)amino)-2-oxoethoxy)imino)acetamido)-2-hydroxy-3,4-dihydro-2H-benzo[e][1,2]oxaborinine-8-carboxylic Acid], the MIC [1] was under 64 µg/mL, the “E. coli PBP3 Potency” value [4] was “C (C represents a potency of <64 μg/mL)” and the MIC [3] was over 128 µg/mL. The “E. coli K12 PBP1a/b Potency” value [5] was “B (B represents a potency between 64 and 1000 μg/mL inclusive)” and the “E. coli PBP2 Potency” value [6] was “B (B represents a potency between 64 and 1000 μg/mL inclusive)”.

For `Nc1nc(/C(=C/c2cccnc2)C(=O)N[C@H]2Cc3cccc(C(=O)O)c3OB2O)cs1` [Example 87, (R,Z)-3-(2-(2-aminothiazol-4-yl)-3-(pyridin-3-yl)acrylamido)-2-hydroxy-3,4-dihydro-2H-benzo[e][1,2]oxaborinine-8-carboxylic Acid], the MIC [1] was under 64 µg/mL, the “E. coli PBP3 Potency” value [4] was “B (B represents a potency between 64 and 1000 μg/mL inclusive)” and the MIC [3] was 64 to 128 µg/mL. The “E. coli K12 PBP1a/b Potency” value [5] was “A (A represents a potency of >1000 μg/mL)” and the “E. coli PBP2 Potency” value [6] was “B (B represents a potency between 64 and 1000 μg/mL inclusive)”.

For `CC(O/N=C(\C(=O)N[C@H]1Cc2cccc(C(=O)O)c2OB1O)c1csc(N)n1)C(N)=O` (stereo partly drawn) [Example 73, (3R)-3-((Z)-2-(((1-amino-1-oxopropan-2-yl)oxy)imino)-2-(2-aminothiazol-4-yl)acetamido)-2-hydroxy-3,4-dihydro-2H-benzo[e][1,2]oxaborinine-8-carboxylic Acid], the MIC [1] was under 64 µg/mL, the “E. coli PBP3 Potency” value [4] was “C (C represents a potency of <64 μg/mL)” and the MIC [3] was over 128 µg/mL. The “E. coli K12 PBP1a/b Potency” value [5] was “C (C represents a potency of <64 μg/mL)” and the “E. coli PBP2 Potency” value [6] was “C (C represents a potency of <64 μg/mL)”.

With `Nc1nc(/C(=N/O)C(=O)N[C@H]2Cc3cc(CCC(=O)O)cc(C(=O)O)c3OB2O)cs1` [Example 37, (R,Z)-3-(2-(2-aminothiazol-4-yl)-2-(hydroxyimino)acetamido)-6-(2-carboxyethyl)-2-hydroxy-3,4-dihydro-2H-benzo[e][1,2]oxaborinine-8-carboxylic Acid] the MIC [1] was under 64 µg/mL, the “E. coli PBP3 Potency” value [4] was “B (B represents a potency between 64 and 1000 μg/mL inclusive)” and the MIC [3] was 64 to 128 µg/mL. For the same compound, the “E. coli K12 PBP1a/b Potency” value [5] was “B (B represents a potency between 64 and 1000 μg/mL inclusive)” and the “E. coli PBP2 Potency” value [6] was “C (C represents a potency of <64 μg/mL)”.

`Nc1nc(/C(=N/OCCF)C(=O)N[C@H]2Cc3cccc(C(=O)O)c3OB2O)cs1` [Example 113, (R,Z)-3-(2-(2-aminothiazol-4-yl)-2-((2-fluoroethoxy)imino)acetamido)-2-hydroxy-3,4-dihydro-2H-benzo[e][1,2]oxaborinine-8-carboxylic Acid] was tested, and the MIC [1] was under 64 µg/mL, the “E. coli K12 PBP1b Potency” value [2] was “B (B represents a potency between 64 and 1000 μg/mL inclusive)” and the MIC [3] was 64 to 128 µg/mL.
